Legend:
Assay type in all cases: functional, cell-based
Conditions in all cases: Homo sapiens
[1] = system: A-431; experiment: Cell viability in A431 cells unstimulated with EGF was tested when incubated with concentration up to 10 uM after 48 h; Did not affect the viability
[2] = system: A-431; experiment: Cell viability in A431 cells when stimulated with EGF was tested when incubated with concentration 0.01 uM after 48 h; Cell death
[3] = system: A-431; experiment: Cell viability in A431 cells when stimulated with EGF was tested when incubated with concentration up to 10 uM after 48 h; Did not affect the viability
[4] = system: A-431; experiment: Cell viability in A431 cells unstimulated with EGF was tested when incubated with concentration in the range of 1-10 uM after 48 h; Did not affect the viability
[5] = system: A-431; experiment: Cell viability in A431 cells when stimulated with EGF was tested when incubated with concentration in the range of 1-10 uM of the compound after 48 h; Cell death
[6] = system: A-431; experiment: Cell viability in A431 cells unstimulated with EGF was tested when incubated with concentration at 2 uM after 48 h; Did not affect the viability
[7] = system: A-431; experiment: Cell viability in A431 cells when stimulated with EGF was tested when incubated with concentration 2 uM after 48 h; Cell death

In the case of `CC[C@@H]([C@@H](O)[C@H](C)C/C(C)=C/C=C/[C@H](OC)[C@H](O)[C@@H](C)COC(c1ccccc1)(c1ccccc1)c1ccc(OC)cc1)[C@H](O)[C@H](C)/C=C(C)/C=C(\OC)C(=O)OC`, the Activity [1] is reported as “No effect” and the Activity [2] is reported as “No effect”.
For `CC[C@H]1[C@@H](O)[C@H](C)C/C(C)=C/C=C/[C@H](OC)[C@@H]([C@@H](C)COC(c2ccccc2)(c2ccccc2)c2ccc(OC)cc2)OC(=O)/C(OC)=C/C(C)=C/[C@@H](C)[C@H]1O`, the Activity [1] was “No effect” and the Activity [3] was “No effect”.
With `CC[C@H]1[C@@H](O)[C@H](C)C/C(C)=C/C=C/[C@H](OC)[C@@H]([C@@H](C)CO)OC(=O)/C(OC)=C/C(C)=C/[C@@H](C)[C@H]1O` the Activity [4] was “No effect” and the Activity [5] was “No effect”.
`C/C=C/[C@H]1O[C@@](O)([C@@H](C)[C@H](O)[C@H](C)[C@H]2OC(=O)/C(OC)=C/C(C)=C/[C@@H](C)[C@@H](O)[C@@H](CC)[C@@H](O)[C@H](C)C/C(C)=C/C=C/[C@@H]2OC)C[C@@H](O)[C@@H]1C` was tested, and the Activity [6] was “No effect” and the Activity [7] was “No effect”.

From ChEMBL document CHEMBL1135559, “Vacuolar-type H(+)-ATPase inhibitory activity of synthetic analogues of the concanamycins: is the hydrogen bond network involving the lactone carbonyl, the hemiacetal hydroxy group, and the C-19 hydroxy group essential for the biological activity of the concanamycins?” (Bioorg Med Chem Lett, 2002)
